The record followed here is patent US9993479B2, “Trk-inhibiting compound” (ONO PHARMACEUTICAL CO., LTD., priority 2013, dated 2018).

For one assay, the system named is sodium monoiodoacetate-induced model rats. Nature of the assay: Analgesic effect on sodium monoiodoacetate-induced model rats. The settings on record: MIA-induced model rats; test substance 0.1, 0.3 or 1 mg/kg orally twice a day day 14-23 and 3 h before measurement on day 24; Table 7 (positive control tramadol). It is filed as in vivo, rat.
For `Nc1ncc(Cl)cc1-c1ccc(Oc2ncc(NC(=O)Nc3cc(C(F)(F)F)ccc3-n3cccn3)cn2)cc1` [Example 7, 1-(2-(1H-pyrazol-1-yl)-5-(trifluoromethyl)phenyl)-3-(2-(4-(2-amino-5-chloropyridin-3-yl)phenoxy)pyrimidin-5-yl)urea], the “Percent improvement (%)” value amounted to 61%.

`Nc1ncc(Cl)cc1-c1ccc(Oc2ncc(NC(=O)Nc3ccc(C(F)(F)F)cc3Cl)cn2)cc1` [Example 15-6, 1-(2-(4-(2-amino-5-chloropyridin-3-yl)phenoxy)pyrimidin-5-yl)-3-(2-chloro-4-(trifluoromethyl)phenyl)urea]: the “Percent improvement (%)” value came out at 51%.

Regarding `COc1ccn2ncc(-c3ccc(Oc4ncc(NC(=O)Nc5cc(C(F)(F)F)ccc5-c5cccnc5)cn4)cc3)c2n1` [Example 21-9, 1-(2-(4-(5-methoxypyrazolo[1,5-a]pyrimidin-3-yl)phenoxy)pyrimidin-5-yl)-3-(2-(pyridin-3-yl)-5-(trifluoromethyl)phenyl)urea], the “Percent improvement (%)” value is 64%.

On to `O=C(Nc1cnc(Oc2ccc(-c3cnn4cccnc34)cc2)nc1)Nc1cc(C(F)(F)F)ccc1-c1cccnc1` [Example 21-13, 1-(2-(4-(pyrazolo[1,5-a]pyrimidin-3-yl)phenoxy)pyrimidin-5-yl)-3-(2-(pyridin-3-yl)-5-(trifluoromethyl)phenyl)urea], for which the “Percent improvement (%)” value came out at 66%.

Consider `Cc1cn(-c2ccc(C(F)(F)F)cc2NC(=O)Nc2cnc(Oc3ccc(-c4cc(Cl)cnc4N)cc3)nc2)nn1` [Example 8-1, 1-(2-(4-(2-amino-5-chloropyridin-3-yl)phenoxy)pyrimidin-5-yl)-3-(2-(4-methyl-1H-1,2,3-triazol-1-yl)-5-(trifluoromethyl)phenyl)urea], for which the “Percent improvement (%)” value is recorded as 60%.

With `Nc1ncc(F)cc1-c1ccc(Oc2ncc(NC(=O)Nc3cc(C(F)(F)F)ccc3-n3ccnn3)cn2)cc1` [Example 14-5, 1-(2-(1H-1,2,3-triazol-1-yl)-5-(trifluoromethyl)phenyl)-3-(2-(4-(2-amino-5-fluoropyridin-3-yl)phenoxy)pyrimidin-5-yl)urea], the “Percent improvement (%)” value came out at 47%.

The same assay, now with this note: MIA-induced model rats; test substance 0.1, 0.3 or 1 mg/kg orally twice a day day 14-23 and 3 h before measurement on day 24; Table 8 (positive control morphine).
As to `Nc1ncc(Cl)cc1-c1ccc(Oc2ncc(NC(=O)Nc3cc(C(F)(F)F)ccc3-c3ccccc3)cn2)cc1` [Example 15-55, 1-{2-[4-(2-amino-5-chloro-3-pyridinyl)phenoxy]-5-pyrimidinyl}-3-[4-(trifluoromethyl)-2-biphenylyl]urea], the “Percent improvement (%)” value worked out at 62%.

With `Nc1ncc(Cl)cc1-c1ccc(Oc2ncc(NC(=O)Nc3cc(C(F)(F)F)ccc3-n3cc(Cl)cn3)cn2)cc1` [Example 15-63, 1-{2-[4-(2-amino-5-chloro-3-pyridinyl)phenoxy]-5-pyrimidinyl}-3-[2-(4-chloro-1H-pyrazol-1-yl)-5-(trifluoromethyl)phenyl]urea], the “Percent improvement (%)” value amounted to 53%.

Take `CN(C)c1ccn2ncc(-c3ccc(Oc4ncc(NC(=O)Nc5cc(C(F)(F)F)ccc5-c5ccccc5)cn4)cc3)c2n1` [Example 21-70, 1-(2-{4-[5-(dimethylamino)pyrazolo[1,5-a]pyrimidin-3-yl]phenoxy}-5-pyrimidinyl)-3-[4-(trifluoromethyl)-2-biphenylyl]urea]: the “Percent improvement (%)” value amounted to 61%.

For the molecule `CS(=O)(=O)c1ccc(C(F)(F)F)cc1NC(=O)Nc1cnc(Oc2ccc(-c3cc(Cl)cnc3N)cc2)nc1` [Example 15-104, 1-{2-[4-(2-amino-5-chloro-3-pyridinyl)phenoxy]-5-pyrimidinyl}-3-[2-(methylsulfonyl)-5-(trifluoromethyl)phenyl]urea], the “Percent improvement (%)” value came out at 54%.

As to `Nc1ncc(C(F)(F)F)cc1-c1ccc(Oc2ncc(NC(=O)Nc3cc(C(F)(F)F)ccc3-n3cc(Cl)cn3)cn2)cc1` [Example 15-87, 1-(2-{4-[2-amino-5-(trifluoromethyl)-3-pyridinyl]phenoxy}-5-pyrimidinyl)-3-[2-(4-chloro-1H-pyrazol-1-yl)-5-(trifluoromethyl)phenyl]urea], the “Percent improvement (%)” value amounted to 57%.

On to `Nc1ncc(Cl)cc1-c1ccc(Oc2ncc(NC(=O)Nc3ccc(C(F)(F)F)cc3C(F)(F)F)cn2)cc1` [Example 15-77, 1-{2-[4-(2-amino-5-chloro-3-pyridinyl)phenoxy]-5-pyrimidinyl}-3-[2,4-bis(trifluoromethyl)phenyl]urea], for which the “Percent improvement (%)” value is on record as 55%.

On to `Nc1ncc(C(F)(F)F)cc1-c1ccc(Oc2ncc(NC(=O)Nc3cc(C(F)(F)F)ccc3-n3ccc(C(F)(F)F)n3)cn2)cc1` [Example 15-52, 1-(2-{4-[2-amino-5-(trifluoromethyl)-3-pyridinyl]phenoxy}-5-pyrimidinyl)-3-{5-(trifluoromethyl)-2-[3-(trifluoromethyl)-1H-pyrazol-1-yl]phenyl}urea], for which the “Percent improvement (%)” value is reported as 60%.

As to `Nc1ncc(F)cc1-c1ccc(Oc2ncc(NC(=O)Nc3cc(C(F)(F)F)ccc3-c3cccnc3)cn2)cc1` [Example 14-6, 1-(2-(4-(2-amino-5-fluoropyridin-3-yl)phenoxy)pyrimidin-5-yl)-3-(2-(pyridin-3-yl)-5-(trifluoromethyl)phenyl)urea], the “Percent improvement (%)” value is given as 53%.

On to `CS(=O)(=O)c1ccc(C(F)(F)F)cc1NC(=O)Nc1cnc(Oc2ccc(-c3cc(C(F)(F)F)cnc3N)cc2)nc1` [Example 15-98, 1-(2-{4-[2-amino-5-(trifluoromethyl)-3-pyridinyl]phenoxy}-5-pyrimidinyl)-3-[2-(methylsulfonyl)-5-(trifluoromethyl)phenyl]urea], for which the “Percent improvement (%)” value was 57%.

On to `CN(C)c1ccn2ncc(-c3ccc(Oc4ncc(NC(=O)Nc5cc(C(F)(F)F)ccc5-c5cccnc5)cn4)cc3)c2n1` [Example 21-37, 1-(2-{4-[5-(dimethylamino)pyrazolo[1,5-a]pyrimidin-3-yl]phenoxy}-5-pyrimidinyl)-3-[2-(3-pyridinyl)-5-(trifluoromethyl)phenyl]urea], for which the “Percent improvement (%)” value was 67%.

As for `CN(C)c1ccn2ncc(-c3ccc(Oc4ncc(NC(=O)Nc5cc(C(F)(F)F)ccc5-c5ccnn5C)cn4)cc3)c2n1` [Example 21-51, 1-(2-{4-[5-(dimethylamino)pyrazolo[1,5-a]pyrimidin-3-yl]phenoxy}-5-pyrimidinyl)-3-[2-(1-methyl-1H-pyrazol-5-yl)-5-(trifluoromethyl)phenyl]urea], the “Percent improvement (%)” value turned out to be 68%.

Turning to `Cc1cccc(-c2ccc(C(F)(F)F)cc2NC(=O)Nc2cnc(Oc3ccc(-c4cnn5ccc(N(C)C)nc45)cc3)nc2)c1` [Example 21-73, 1-(2-{4-[5-(dimethylamino)pyrazolo[1,5-a]pyrimidin-3-yl]phenoxy}-5-pyrimidinyl)-3-[3′-methyl-4-(trifluoromethyl)-2-biphenylyl]urea], the “Percent improvement (%)” value is given as 62%.

The same assay, now with this note: MIA-induced model rats; tramadol 10 mg/kg subcutaneously 1 hour before measurement on day 24; Table 7.
On to `COc1cccc(C2(O)CCCCC2CN(C)C)c1` (stereo not shown) [Tramadol, tramadol, reference compound], for which the “Percent improvement (%)” value turned out to be 43%.
